Measured values published in patent US7326722B2, “N-[Phenyl(piperidin-2-yl)methyl]benzamide derivatives, their preparation and their application in therapy” (Sanofi-Aventis, priority 2002, dated 2008).
Where a name gives a salt, the structure may show the parent alone.

Row | melting point [°C] | Compound
1 | 126 to 128 | C[N+]1([O-])CCCCC1C(NC(=O)c1cccc(C(F)(F)F)c1Cl)c1ccccc1 (centres unmarked) (as salt: HCl) [Compound No. 69]
2 | 100 to 102 | C[N+]1([O-])CCCCC1C(NC(=O)c1cccc(C(F)(F)F)c1Cl)c1ccccc1 (centres unmarked) (as salt: HCl) [Compound No. 70]
